Reference: patent publication US20210045385A1, “PYRIDAZINONE-SUBSTITUTED KETOXIMES AS HERBICIDES” (FMC Corporation, priority 2018, published 2021)

Columns and labels:
[1] = tested on: Italian ryegrass (Lolium multiflorum); experiment: Test A preemergence, visual plant response rating; assay type: in vivo; details: for Ryegrass, Italian plant response rating (0 to 100 scale): approx. 10 days
Summary of the method: (§1)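 Formulated in a non-phytotoxic solvent mixture including surfactant, each test chemical was sprayed onto the soil surface after sowing, or onto seedlings 2 to 10 cm high. Roughly 10 days later, plants were compared with untreated controls and rated for injury from 0 (no effect) to 100 (complete control).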

[2] = tested on: barnyardgrass (Echinochloa crus-galli); experiment: Test A preemergence, visual plant response rating; assay type: in vivo; details: for Barnyardgrass plant response rating (0 to 100 scale): approx. 10 days
Summary of the method: as §1

[3] = tested on: foxtail, giant (giant foxtail, Setaria faberii); experiment: Test A preemergence, visual plant response rating; assay type: in vivo
Summary of the method: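 Greenhouse pot test in loam–sand soil mix: compound in a surfactant-containing non-phytotoxic solvent applied preemergence (directed soil spray) or postemergence (one- to two-leaf plants, 2–10 cm). Injury scored visually after ~10 days, 0–100.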

kochia (Kochia scoparia) [4] = experiment: Test A preemergence, visual plant response rating; assay type: in vivo; details: for Kochia plant response rating (0 to 100 scale): approx. 10 days
Summary of the method: as §1

[5] = tested on: pigweed (Amaranthus retroflexus); experiment: Test A preemergence, visual plant response rating; assay type: in vivo; details: for Pigweed plant response rating (0 to 100 scale): approx. 10 days
Summary of the method: as §1

[6] = tested on: Italian ryegrass (Lolium multiflorum); experiment: Test A postemergence, visual plant response rating; assay type: in vivo; details: for Ryegrass, Italian plant response rating (0 to 100 scale): 500 g ai/ha, postemergence, 0 is no effect, 100 is complete control; for Ryegrass, Italian plant response rating: Postemergence, 125 g ai/ha, 0 to 100 scale (0 no effect, 100 complete control)
Summary of the method: as §1

[7] = tested on: barnyardgrass (Echinochloa crus-galli); experiment: Test A postemergence, visual plant response rating; assay type: in vivo; details: for Barnyardgrass plant response rating (0 to 100 scale): 500 g ai/ha, postemergence, 0 is no effect, 100 is complete control; for Barnyardgrass plant response rating: Postemergence, 125 g ai/ha, 0 to 100 scale (0 no effect, 100 complete control)
Summary of the method: as §1

[8] = tested on: blackgrass (Alopecurus myosuroides); experiment: Test A postemergence, visual plant response rating; assay type: in vivo; details: for Blackgrass plant response rating (0 to 100 scale): 500 g ai/ha, postemergence, 0 is no effect, 100 is complete control; for Blackgrass plant response rating: Postemergence, 125 g ai/ha, 0 to 100 scale (0 no effect, 100 complete control)
Summary of the method: as §1

corn (Zea mays) = experiment: Test A postemergence, visual plant response rating; assay type: in vivo; details: for Corn plant response rating (0 to 100 scale): 500 g ai/ha, postemergence, 0 is no effect, 100 is complete control; for Corn plant response rating: Postemergence, 125 g ai/ha, 0 to 100 scale (0 no effect, 100 complete control)
Summary of the method: as §1

[9] = tested on: foxtail, giant (giant foxtail, Setaria faberii); experiment: Test A postemergence, visual plant response rating; assay type: in vivo
Summary of the method: as §1

[10] = tested on: galium (catchweed bedstraw, Galium aparine); experiment: Test A postemergence, visual plant response rating; assay type: in vivo; details: for Galium plant response rating (0 to 100 scale): 500 g ai/ha, postemergence, 0 is no effect, 100 is complete control; for Galium plant response rating: Postemergence, 125 g ai/ha, 0 to 100 scale (0 no effect, 100 complete control)
Summary of the method: as §1

kochia (Kochia scoparia) [11] = experiment: Test A postemergence, visual plant response rating; assay type: in vivo; details: for Kochia plant response rating (0 to 100 scale): 500 g ai/ha, postemergence, 0 is no effect, 100 is complete control; for Kochia plant response rating: Postemergence, 125 g ai/ha, 0 to 100 scale (0 no effect, 100 complete control)
Summary of the method: as §1

[12] = tested on: pigweed (Amaranthus retroflexus); experiment: Test A postemergence, visual plant response rating; assay type: in vivo; details: for Pigweed plant response rating (0 to 100 scale): 500 g ai/ha, postemergence, 0 is no effect, 100 is complete control; for Pigweed plant response rating: Postemergence, 125 g ai/ha, 0 to 100 scale (0 no effect, 100 complete control)
Summary of the method: as §1

[13] = tested on: ragweed (common ragweed, Ambrosia elatior); experiment: Test A postemergence, visual plant response rating; assay type: in vivo; details: for Ragweed plant response rating (0 to 100 scale): 500 g ai/ha, postemergence, 0 is no effect, 100 is complete control; for Ragweed plant response rating: Postemergence, 125 g ai/ha, 0 to 100 scale (0 no effect, 100 complete control)
Summary of the method: as §1

[14] = tested on: wheat (Triticum aestivum); experiment: Test A postemergence, visual plant response rating; assay type: in vivo; details: for Wheat plant response rating (0 to 100 scale): 500 g ai/ha, postemergence, 0 is no effect, 100 is complete control; for Wheat plant response rating: Postemergence, 125 g ai/ha, 0 to 100 scale (0 no effect, 100 complete control)
Summary of the method: as §1

[15] = tested on: barnyardgrass (Echinochloa crus-galli); experiment: Test B flooded paddy test, visual plant response rating; assay type: in vivo; details: 250 g ai/ha, Flood, applied to paddy water, 2-leaf stage, evaluated after 13 to 15 days
Summary of the method: (§2)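 Rice, umbrella sedge, ducksalad and barnyardgrass grown to 2-leaf stage; pots flooded 3 cm above soil and compound applied directly to paddy water, depth maintained.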

[16] = tested on: ducksalad (Heteranhera limosa); experiment: as above; assay type: in vivo; details: 250 g ai/ha, Flood, applied to paddy water, 2-leaf stage, evaluated after 13 to 15 days
Summary of the method: as §2

rice (Oryza sativa) = experiment: as above; assay type: in vivo; details: 250 g ai/ha, Flood, applied to paddy water, 2-leaf stage, evaluated after 13 to 15 days
Summary of the method: as §2

[17] = tested on: sedge, umbrella (small-flower umbrella sedge, Cyperus difformis); experiment: as above; assay type: in vivo; details: 250 g ai/ha, Flood, applied to paddy water, 2-leaf stage, evaluated after 13 to 15 days
Summary of the method: as §2

[18] = tested on: foxtail, green (green foxtail, Setaria viridis); experiment: Test A preemergence, visual plant response rating; assay type: in vivo; details: approx. 10 days
Summary of the method: as §1

[19] = tested on: ragweed (common ragweed, Ambrosia elatior); experiment: Test A preemergence, visual plant response rating; assay type: in vivo; details: approx. 10 days
Summary of the method: as §1

[20] = tested on: foxtail, green (green foxtail, Setaria viridis); experiment: Test A postemergence, visual plant response rating; assay type: in vivo
Summary of the method: as §1

[21] = 125 g ai/ha, preemergence, 0 to 100 scale, 0 no effect, 100 complete control
[22] = 500 g ai/ha, postemergence, 0 is no effect, 100 is complete control
[23] = Postemergence, 125 g ai/ha, 0 to 100 scale (0 no effect, 100 complete control)

Row | Compound | Ryegrass, Italian plant response rating (0 to 100 scale) ([1]; 500 g ai/ha Preemergence) | Barnyardgrass plant response rating (0 to 100 scale) ([2]; 500 g ai/ha Preemergence) | Kochia plant response rating (0 to 100 scale) (kochia (Kochia scoparia) [4]; 500 g ai/ha Preemergence) | Pigweed plant response rating (0 to 100 scale) ([5]; 500 g ai/ha Preemergence) | Ryegrass, Italian plant response rating (0 to 100 scale) [6] | Ryegrass, Italian plant response rating [6] | Barnyardgrass plant response rating (0 to 100 scale) [7] | Barnyardgrass plant response rating [7] | Blackgrass plant response rating (0 to 100 scale) [8] | Blackgrass plant response rating [8] | Corn plant response rating (0 to 100 scale) (corn (Zea mays)) | Corn plant response rating (corn (Zea mays)) | Galium plant response rating (0 to 100 scale) [10] | Galium plant response rating [10] | Kochia plant response rating (0 to 100 scale) (kochia (Kochia scoparia) [11]) | Kochia plant response rating (kochia (Kochia scoparia) [11]) | Pigweed plant response rating (0 to 100 scale) [12] | Pigweed plant response rating [12] | Ragweed plant response rating (0 to 100 scale) [13] | Ragweed plant response rating [13] | also measured
1 | CO/N=C(/c1c(O)c(C)nn(C)c1=O)c1cc(Br)cc2ccccc12 [Compound 99, 4-[(E)-(3-bromo-1-naphthalenyl)(methoxyimino)methyl]-5-hydroxy-2,6-dimethyl-3(2H)-pyridazinone] | 100 | 100 | 90 | 100 | 90 | 90 | 90 | 80 | 100 | 90 | 60 | 30 | 100 | 90 | 70 | 50 | 100 | 60 | 90 | 90 | Ryegrass, Italian plant response rating [1, 21]: 90; Barnyardgrass plant response rating [2, 21]: 90; Foxtail, Giant plant response rating [3, 21]: 100; Foxtail, Giant plant response rating (0 to 100 scale) ([3]; 500 g ai/ha Preemergence, approx. 10 days): 100; Kochia plant response rating (kochia (Kochia scoparia) [4]; [21]): 70; Pigweed plant response rating [5, 21]: 90; Foxtail, Giant plant response rating (0 to 100 scale) [9, 22]: 80; Foxtail, Giant plant response rating [9, 23]: 80; Wheat plant response rating (0 to 100 scale) [14]: 80; Wheat plant response rating [14]: 50; Plant response rating, Barnyardgrass (0 to 100 scale, 0 is no effect, 100 is complete control) [15]: 25; Plant response rating, Ducksalad (0 to 100 scale, 0 is no effect, 100 is complete control) [16]: 70; Plant response rating, Rice (0 to 100 scale, 0 is no effect, 100 is complete control) (rice (Oryza sativa)): 15; Plant response rating, Sedge, Umbrella (0 to 100 scale, 0 is no effect, 100 is complete control) [17]: 70; melting point: 194 to 198 °C
2 | Cc1ccccc1/C(=N\OC(C)C)c1c(O)c(C)nn(C)c1=O [Compound 20] | 70 | 70 | 0 | 100 | 50 | 20 | 50 | 30 | 60 | 20 | 0 | 0 | 90 | 80 | 50 | 0 | 70 | 60 | 80 | 60 | Ryegrass, Italian plant response rating (0 to 100 scale) ([1]; 125 g ai/ha Preemergence): 30; Barnyardgrass plant response rating (0 to 100 scale) ([2]; 125 g ai/ha Preemergence): 20; Foxtail, Green plant response rating (0 to 100 scale) ([18]; 125 g ai/ha Preemergence): 0; Foxtail, Green plant response rating (0 to 100 scale) ([18]; 500 g ai/ha Preemergence): 60; Kochia plant response rating (0 to 100 scale) (kochia (Kochia scoparia) [4]; 125 g ai/ha Preemergence): 0; Pigweed plant response rating (0 to 100 scale) ([5]; 125 g ai/ha Preemergence): 80; Ragweed plant response rating (0 to 100 scale) ([19]; 125 g ai/ha Preemergence): 30; Ragweed plant response rating (0 to 100 scale) ([19]; 500 g ai/ha Preemergence): 90; Foxtail, Green plant response rating (0 to 100 scale) [20, 22]: 60; Foxtail, Green plant response rating [20, 23]: 30; Wheat plant response rating (0 to 100 scale) [14]: 0; Wheat plant response rating [14]: 0; Plant response rating, Barnyardgrass (0 to 100 scale, 0 is no effect, 100 is complete control) [15]: 0; Plant response rating, Ducksalad (0 to 100 scale, 0 is no effect, 100 is complete control) [16]: 0; Plant response rating, Rice (0 to 100 scale, 0 is no effect, 100 is complete control) (rice (Oryza sativa)): 0; Plant response rating, Sedge, Umbrella (0 to 100 scale, 0 is no effect, 100 is complete control) [17]: 0
